Key:
ERβ [1] = target: T1, ERβ (Homo sapiens, UniProt Q92731); settings: in the presence of ERβ
ERβ [2] = target: T1, ERβ; assay: TNF-RE tkLuc repression in U2OS cells, ERβ; format: cell-based; parameters: expressed in transfected cells
TNF-RE tkLuc = assay: Antiestrogen effect on TNF-RE tkLuc (Example 2); format: cell-based, human; settings: for effect on the repression induced by E2: TNF-RE tkLuc; for activation of TNF-RE tkLuc: antiestrogens, in contrast to E2
ERβ [3] = target: T1, ERβ; assay: ERE-tk-Luc luciferase assay in U2OS cells, ERβ; format: cell-based; parameters: expressed in transfected cells; host or cells: U2OS (human osteosarcoma), electroporated; settings: competition with herb 6, U2OS cells, FIG. 6
[4] = system: postmenopausal women who have osteoporosis; settings: median follow-up of 40 months, cited from earlier work
[5] = system: women considered to be at high risk for breast cancer; settings: cited from earlier work
[6] = system: women with estrogen receptor-positive breast cancer; settings: five years of therapy; cited from earlier work

T1 sequence (Q92731 whole entry): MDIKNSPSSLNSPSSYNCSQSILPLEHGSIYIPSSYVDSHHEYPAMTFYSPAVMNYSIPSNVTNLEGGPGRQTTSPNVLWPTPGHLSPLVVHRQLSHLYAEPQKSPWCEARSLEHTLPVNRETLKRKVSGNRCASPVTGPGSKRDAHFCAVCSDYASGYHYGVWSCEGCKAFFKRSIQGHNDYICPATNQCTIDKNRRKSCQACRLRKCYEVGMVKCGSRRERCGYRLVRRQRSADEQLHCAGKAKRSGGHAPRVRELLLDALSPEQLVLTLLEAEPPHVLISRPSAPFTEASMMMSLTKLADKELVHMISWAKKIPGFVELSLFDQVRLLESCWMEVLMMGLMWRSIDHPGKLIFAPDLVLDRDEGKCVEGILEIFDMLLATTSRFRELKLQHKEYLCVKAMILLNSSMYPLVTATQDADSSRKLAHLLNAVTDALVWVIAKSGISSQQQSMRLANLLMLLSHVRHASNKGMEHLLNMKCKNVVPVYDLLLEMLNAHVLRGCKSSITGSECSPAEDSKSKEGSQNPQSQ

Row | repression of TNF-α activation of TNF-RE tkLuc (ERβ [1]) | repression of TNF-α activation of TNF-RE (ERβ [2]) | effect on herb 6 stimulation of the ERE with ERβ (ERβ [3]) | Structure (SMILES) | effect on the repression induced by E2 (TNF-RE tkLuc) | activation of TNF-RE tkLuc (TNF-RE tkLuc) | cases of breast cancer in the treatment group ([4]; among 5129 women) | RR of breast cancer versus placebo [4] | reduction of the risk of primary invasive breast cancer [5] | reduction of mortality from breast cancer [6] | reduction of the risk of recurrences [6]
1 | 60-80% | 100% |  | C[C@]12CC[C@@H]3c4ccc(O)cc4CC[C@H]3[C@@H]1CC[C@@H]2O [E2, estradiol] |  |  |  |  |  |  | 
2 |  |  |  | C[C@]12CC[C@@H]3c4ccc(O)cc4C[C@@H](CCCCCCCCC[S+]([O-])CCCC(F)(F)C(F)(F)F)[C@H]3[C@@H]1CC[C@@H]2O (some centres unmarked) [ICI 182, 780] | abolished the repression induced by E2 | 2 fold |  |  |  |  | 
3 |  |  | inhibited | O=C(c1ccc(OCCN2CCCCC2)cc1)c1c(-c2ccc(O)cc2)sc2cc(O)ccc12 [raloxifene] | abolished the repression induced by E2 | 2 fold | 13 cases | 0.24 |  |  | 
4 |  |  |  | CC/C(=C(\c1ccccc1)c1ccc(OCCN(C)C)cc1)c1ccccc1 [tamoxifen] | abolished the repression induced by E2 | 2 fold |  |  | 49% | 22% | 42%

Reference: patent US9132161B2
